Experimental data as given in a compilation of properties of binary mixtures (doi:10.5772/14848).

Experiment: xn = mol fraction of the nth substance listed
Settings: 101 kPa

SMILES: CCC[N+]1(C)CCCC1.O=S(=O)([N-]S(=O)(=O)C(F)(F)F)C(F)(F)F + O=C1CCCO1
- electrical conductivity (278.15 K, x1 = 0.0657): 0.831 S/m
- electrical conductivity (278.15 K, x1 = 0.1741): 0.965 S/m
- electrical conductivity (288.15 K, x1 = 0.0657): 0.987 S/m
- electrical conductivity (288.15 K, x1 = 0.1741): 1.18 S/m
- electrical conductivity (288.15 K, x1 = 0.3874): 0.765 S/m
- electrical conductivity (298.15 K, x1 = 0.0657): 1.14 S/m
- electrical conductivity (298.15 K, x1 = 0.1741): 1.39 S/m
- electrical conductivity (298.15 K, x1 = 0.3874): 0.979 S/m
- electrical conductivity (308.15 K, x1 = 0.0657): 1.3 S/m
- electrical conductivity (308.15 K, x1 = 0.3874): 1.22 S/m
- electrical conductivity (318.15 K, x1 = 0.0657): 1.46 S/m
- electrical conductivity (318.15 K, x1 = 0.1741): 1.86 S/m
- electrical conductivity (318.15 K, x1 = 0.3874): 1.47 S/m
- electrical conductivity (328.15 K, x1 = 0.1741): 2.12 S/m
- electrical conductivity (328.15 K, x1 = 0.3874): 1.74 S/m
- electrical conductivity (338.15 K, x1 = 0.0657): 1.8 S/m
- electrical conductivity (338.15 K, x1 = 0.1741): 2.35 S/m
- electrical conductivity (338.15 K, x1 = 0.3874): 2 S/m
- electrical conductivity (348.15 K, x1 = 0.0657): 1.96 S/m
- electrical conductivity (358.15 K, x1 = 0.1741): 2.82 S/m
- electrical conductivity (358.15 K, x1 = 0.3874): 2.56 S/m
